According to patent US8471061B2 (priority 2004, dated 2013):
Where “and” joins values, the source holds several entries; their conditions need not be identical. Identical values can stand only once.

Tests used:
[1] = pH of solution of 0.5 g in 0.5 ml of distilled water; format: physicochemical
Description: Using three New Zealand white rabbits (males), a solution prepared by dissolving 0.5 g of 5-aminolevulinic acid phosphate in 0.5 ml of distilled water (pH 3.1) was applied for 4 hours to a 2.5 cm square area of the shaved uninjured skin of each animal which was then observed for 1, 24, 48 and 72 hours.

[2] = system: cotton (variety; M-5 Acala); assay: Salinity tolerance improving effect; format: in vivo; design: key: salt damage: 0 = none, 5 = plant withered
Description: A porcelain pot of 12 cm in inner diameter having no drainage hole was filled with 600 g of upland soil, and 7 to 8 seeds of cotton seeds (variety; M-5 Acala) were sowed, covered with 1 cm in thickness of the soil and allowed to grow in a green house. Thereafter, general management was carried out, and at the time of leaflet development, a salinity improving agent containing each of the compounds to be tested with respective concentrations shown in Table 12 and 0.05% (v/v) of a spreader (Neoesterin: manufactured by Kumiai Chemical Industry) was prepared and was applied to foliage at an application volume of 100 liters per 10 are. Four days thereafter, sodium chloride in an amount which corresponds to 0 to 1.5% by weight per soil weight as shown in Table 12 was dissolved in 30 ml of water and added dropwise to the soil. By further continuing general cultivation, examination was carried out 23 days thereafter. the examination was carried out by naked eye observation, and the results of salt damage were evaluated based on the following 6 steps.
• 0: Absolutely no salt damage is observed. • 1: Very weak salt damage is observed. • 2: Weak salt damage is observed. • 3: Obvious salt damage is observed. • 4: Strong salt damage is observed. • 5: The plant body withered up due to salt damage.

Rice seeds (Akinishiki) = assay: Plant growth regulation effect; format: in vivo; conditions: ratio to untreated plot
Description: Rice seeds (Akinishiki) were soaked in Benlate (manufactured by Sumika Takeda Engei) (200 times) aqueous solution for a whole day and night and then incubated at 30° C. under a dark condition to effect hastening of germination. Seeds of even pigeon breast stage were selected, 10 seeds were inserted using a pair of tweezers into a groove on one expanded polyethylene sheet, which was made using a cutter knife, and this sheet was floated on a tall Petri dish filled with 150 ml of 5-aminolevulinic acid phosphate of respective concentrations shown in Table 11 and incubated at 25° C. for 24 hours under 5,000 lux continuous light irradiation. The number of repetitions was set to 3 repetitions for each concentration. Examination was carried out three days thereafter, and lengths of the first leaf sheath and seminal root in each plot were measured to calculate their ratios to those in the untreated plot and to calculate average values thereof.

[3] = system: Salmonella typhimurium TA 100; assay: Back mutation test, TA100; format: cell-based; conditions: for number of back mutation, single plates: Phosphate
Description: A test was carried out in accordance with the “Standard of Mutagenicity Tests Using Microorganisms” (Ministry of Labor Notification No. 77, 1988) (partial revision by Ministry of Labor Notification No. 67, 1997) and “Regarding the Tests Concerning Novel Chemical Substances and the like” (dated Nov. 21, 2003: Yaku-Shoku-Hatsu No. 1121002, 2003.11.13 Sei-Kyoku, No. 2, Kan-Ho-Ki-Hatsu No. 031121002). To 0.1 ml of a solution prepared by dissolving 5% (w/v) of 5-aminolevulinic acid phosphate in distilled water (Wako Pure Chemical Industries), 0.5 ml of 0.1 M sodium-phosphate buffer (pH 7.4) (0.5 ml S9 mix in the case of metabolism activation test) was added, and 0.1 ml of each test strain suspension (5 strains of histidine-less Salmonella typhimurium TA 100, TA 98, TA 1535 and TA 1537 and tryptophan-less Escherichia coli WP2 uvrA were used (Japan Bioassay Research Center)) was further added thereto, followed by pre-incubation at 37° C. for 20 minutes while shaking. After completion of the culturing, 2.0 ml of top agar kept at 45° C. in advance was added thereto and layered on a minimum glucose agar plate medium. In this case, 2 plates were arranged for each dosage. However, 3 plates were arranged for a solvent control (negative control). […] In the measurement, an inner area of about 80 mm in diameter of a plate of 86 mm in diameter (84 mm in inner diameter) was measured using an automatic colony analyzer (CA-11: manufactured by System Science), and calculated by carrying out area correction and counting loss correction using a personal computer. However, since reliability of the automatic colony analyzer is reduced when the number of colonies is 1,500 or more, 5 points in the plate were manually measured under the stereoscopic microscope to carry out area correction of the average value. A dosage setting test was carried out on 7 dosages diluted at a common ratio of 4, using a dosage of 5,000 μg/plate as the maximum which is the maximum dosage defined by the guideline. […] Growth inhibition of the strains by this substance to be tested was not found. […] Thus, this test was carried out by setting 5 dosages diluted at a common ratio of 2, using a dosage of 5,000 μg/plate as the maximum which is the maximum dosage defined by the guideline.

[4] = treating concentration 10 ppm, NaCl 0 wt % per soil weight
[5] = treating concentration 10 ppm, NaCl 0.5 wt % per soil weight
[6] = treating concentration 10 ppm, NaCl 0.75 wt % per soil weight
[7] = treating concentration 10 ppm, NaCl 1 wt % per soil weight
[8] = treating concentration 10 ppm, NaCl 1.5 wt % per soil weight
[9] = treating concentration 30 ppm, NaCl 0 wt % per soil weight
[10] = treating concentration 30 ppm, NaCl 0.5 wt % per soil weight
[11] = treating concentration 30 ppm, NaCl 0.75 wt % per soil weight
[12] = treating concentration 30 ppm, NaCl 1 wt % per soil weight
[13] = treating concentration 30 ppm, NaCl 1.5 wt % per soil weight
[14] = treating concentration 100 ppm, NaCl 0 wt % per soil weight
[15] = treating concentration 100 ppm, NaCl 0.5 wt % per soil weight
[16] = treating concentration 100 ppm, NaCl 0.75 wt % per soil weight
[17] = treating concentration 100 ppm, NaCl 1 wt % per soil weight
[18] = treating concentration 100 ppm, NaCl 1.5 wt % per soil weight
[19] = treating concentration 300 ppm, NaCl 0 wt % per soil weight
[20] = treating concentration 300 ppm, NaCl 0.5 wt % per soil weight
[21] = treating concentration 300 ppm, NaCl 0.75 wt % per soil weight
[22] = treating concentration 300 ppm, NaCl 1 wt % per soil weight
[23] = treating concentration 300 ppm, NaCl 1.5 wt % per soil weight

Cl.NCC(=O)CCC(=O)O [5-aminolevulinic acid hydrochloride, reference compound] gave a pH of solution [1] of at most 2.0, a salt damage evaluation [2, 4] of 0 and a salt damage evaluation [2, 5] of 1. For the same compound, the salt damage evaluation [2, 6] was 1, the salt damage evaluation [2, 7] was 1 and the salt damage evaluation [2, 8] was 2. The salt damage evaluation [2, 9] was 0, the salt damage evaluation [2, 10] was 1 and the salt damage evaluation [2, 11] was 2. The salt damage evaluation [2, 12] was 3, the salt damage evaluation [2, 13] was 3 and the salt damage evaluation [2, 14] was 0. It also gave a salt damage evaluation [2, 15] of 1, a salt damage evaluation [2, 16] of 1 and a salt damage evaluation [2, 17] of 2. For the same compound, the salt damage evaluation [2, 18] was 3, the salt damage evaluation [2, 19] was 0 and the salt damage evaluation [2, 20] was 0. The salt damage evaluation [2, 21] was 1, the salt damage evaluation [2, 22] was 1 and the salt damage evaluation [2, 23] was 2. The “First leaf sheath length (%)” value (Rice seeds (Akinishiki); 1 ppm) was 107%, the “Seminal root length (%)” value (Rice seeds (Akinishiki); 1 ppm) was 103% and the “First leaf sheath length (%)” value (Rice seeds (Akinishiki); 10 ppm) was 101%. For the same compound, the “Seminal root length (%)” value (Rice seeds (Akinishiki); 10 ppm) was 96%, the “First leaf sheath length (%)” value (Rice seeds (Akinishiki); 100 ppm) was 98% and the “Seminal root length (%)” value (Rice seeds (Akinishiki); 100 ppm) was 109%.

With NCC(=O)CCC(=O)O.O=P(O)(O)O [5-aminolevulinic acid phosphate, 5-aminolevulinic Acid Phosphate] the “number of back mutation, mean (in parentheses)” value (“number of back mutation, mean” below) ([3]; S9 Mix(+), 313 μg/plate) was “(134) colonies/plate”, the “number of back mutation, single plates” value ([3]; S9 Mix(+), 313 μg/plate) was 146 colonies/plate and 122 colonies/plate and the “number of back mutation, mean” value ([3]; S9 Mix(+), 625 μg/plate) was “(102) colonies/plate”. For the same compound, the “number of back mutation, single plates” value ([3]; S9 Mix(+), 625 μg/plate) was 107 colonies/plate and 96 colonies/plate, the “number of back mutation, mean” value ([3]; S9 Mix(+), 1250 μg/plate) was “(129) colonies/plate” and the “number of back mutation, single plates” value ([3]; S9 Mix(+), 1250 μg/plate) was 128 colonies/plate and 129 colonies/plate. The “number of back mutation, mean” value ([3]; S9 Mix(+), 2500 μg/plate) was “(106) colonies/plate”, the “number of back mutation, single plates” value ([3]; S9 Mix(+), 2500 μg/plate) was 109 colonies/plate and 102 colonies/plate and the “number of back mutation, mean” value ([3]; S9 Mix(+), 5000 μg/plate) was “(133) colonies/plate”. The “number of back mutation, single plates” value ([3]; S9 Mix(+), 5000 μg/plate) was 130 colonies/plate and 136 colonies/plate, the “number of back mutation, mean” value ([3]; S9 Mix(−), 313 μg/plate) was “(85) colonies/plate” and the “number of back mutation, single plates” value ([3]; S9 Mix(−), 313 μg/plate) was 87 colonies/plate and 82 colonies/plate. The “number of back mutation, mean” value ([3]; S9 Mix(−), 625 μg/plate) was “(90) colonies/plate”, the “number of back mutation, single plates” value ([3]; S9 Mix(−), 625 μg/plate) was 84 colonies/plate and 95 colonies/plate and the “number of back mutation, mean” value ([3]; S9 Mix(−), 1250 μg/plate) was “(99) colonies/plate”. For the same compound, the “number of back mutation, single plates” value ([3]; S9 Mix(−), 1250 μg/plate) was 84 colonies/plate and 114 colonies/plate, the “number of back mutation, mean” value ([3]; S9 Mix(−), 2500 μg/plate) was “(79) colonies/plate” and the “number of back mutation, single plates” value ([3]; S9 Mix(−), 2500 μg/plate) was 76 colonies/plate and 82 colonies/plate. For the same compound, the “number of back mutation, mean” value ([3]; S9 Mix(−), 5000 μg/plate) was “(107) colonies/plate”, the “number of back mutation, single plates” value ([3]; S9 Mix(−), 5000 μg/plate) was 115 colonies/plate and 99 colonies/plate and the pH of solution [1] was 3.1. For the same compound, the salt damage evaluation [2, 4] was 0, the salt damage evaluation [2, 5] was 0 and the salt damage evaluation [2, 6] was 1. For the same compound, the salt damage evaluation [2, 7] was 2, the salt damage evaluation [2, 8] was 3 and the salt damage evaluation [2, 9] was 0. The salt damage evaluation [2, 10] was 0, the salt damage evaluation [2, 11] was 0 and the salt damage evaluation [2, 12] was 1. The salt damage evaluation [2, 13] was 2, the salt damage evaluation [2, 14] was 0 and the salt damage evaluation [2, 15] was 1. For the same compound, the salt damage evaluation [2, 16] was 2, the salt damage evaluation [2, 17] was 3 and the salt damage evaluation [2, 18] was 4. The salt damage evaluation [2, 19] was 0, the salt damage evaluation [2, 20] was 1 and the salt damage evaluation [2, 21] was 1. For the same compound, the salt damage evaluation [2, 22] was 2, the salt damage evaluation [2, 23] was 3 and the “First leaf sheath length (%)” value (Rice seeds (Akinishiki); 1 ppm) was 102%. The “Seminal root length (%)” value (Rice seeds (Akinishiki); 1 ppm) was 106%, the “First leaf sheath length (%)” value (Rice seeds (Akinishiki); 10 ppm) was 106% and the “Seminal root length (%)” value (Rice seeds (Akinishiki); 10 ppm) was 108%. The “First leaf sheath length (%)” value (Rice seeds (Akinishiki); 100 ppm) was 101% and the “Seminal root length (%)” value (Rice seeds (Akinishiki); 100 ppm) was 101%.
